From ChEMBL document CHEMBL3860079, “Design and synthesis of novel HDAC8 inhibitory 2,5-disubstituted-1,3,4-oxadiazoles containing glycine and alanine hybrids with anti cancer activity” (Bioorg Med Chem, 2016)

Key:
[1] = Cytotoxicity against human MDA-MB-231 cells assessed as reduction in cell viability measured after 24 hrs by MTT assay; assay type: functional, cell-based; conditions: MDA-MB-231, 24 h
Histone deacetylase 8 = target: T1, Histone deacetylase 8 (Homo sapiens, UniProt Q9BY41); assay: Inhibition of recombinant human full length GST-tagged HDAC8 expressed in Escherichia coli DH5alpha (DE3) assessed as inhibition of deacetylation activity using Fluor-de-Lys as substrate measured after 15 mins by fluorimetric assay
T1 sequence (Q9BY41 whole entry): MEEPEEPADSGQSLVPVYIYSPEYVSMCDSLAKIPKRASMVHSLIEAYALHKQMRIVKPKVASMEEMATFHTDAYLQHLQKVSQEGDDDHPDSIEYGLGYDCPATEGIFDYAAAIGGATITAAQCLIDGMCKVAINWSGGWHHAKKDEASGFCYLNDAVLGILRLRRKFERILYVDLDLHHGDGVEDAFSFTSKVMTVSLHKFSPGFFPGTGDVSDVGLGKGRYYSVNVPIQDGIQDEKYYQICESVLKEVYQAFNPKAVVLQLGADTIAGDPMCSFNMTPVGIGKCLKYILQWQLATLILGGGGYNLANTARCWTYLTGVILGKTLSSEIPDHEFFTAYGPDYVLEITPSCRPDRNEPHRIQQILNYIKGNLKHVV

Histone deacetylase 2 [2] = target: T2, Histone deacetylase 2 (Homo sapiens, UniProt Q92769); assay: Inhibition of HDAC2 in human MDA-MB-231 cells assessed as inhibition of deacetylation activity at 100 nM using Fluor-de-Lys as substrate measured after 15 mins by fluorimetric assay; assay type: cell-based
Histone deacetylase 3 [3] = target: T3, Histone deacetylase 3 (Homo sapiens, UniProt O15379); assay: Inhibition of HDAC3 in human MDA-MB-231 cells assessed as inhibition of deacetylation activity using Fluor-de-Lys as substrate measured after 15 mins by fluorimetric assay; assay type: cell-based
Homo sapiens [4] = organism: Homo sapiens; assay: Selectivity ratio of IC50 for human full length GST-tagged HDAC8 expressed in Escherichia coli DH5alpha (DE3) to IC50 for HDAC1 in human MDA-MB-231 cells
[5] = target: T4, Histone deacetylase 8 (Homo sapiens) (UniProt Q9BY41); assay: Inhibition of human HDAC8 immunoprecipitated from MDA-MB-231 cell lysates assessed as inhibition of deacetylation activity at 100 nM using Fluor-de-Lys as substrate measured after 15 mins by fluorimetric assay
T4 sequence (whole entry): T1 sequence (Q9BY41 whole entry)

Histone deacetylase 1 [6] = target: T5, Histone deacetylase 1 (Homo sapiens, UniProt Q13547); assay: Inhibition of HDAC1 in human MDA-MB-231 cells assessed as inhibition of deacetylation activity using Fluor-de-Lys as substrate measured after 15 mins by fluorimetric assay; assay type: cell-based
Histone deacetylase 3 [7] = target: T3, Histone deacetylase 3; assay: Inhibition of HDAC3 in human MDA-MB-231 cells assessed as inhibition of deacetylation activity at 100 nM using Fluor-de-Lys as substrate measured after 15 mins by fluorimetric assay; assay type: cell-based
Homo sapiens [8] = organism: Homo sapiens; assay: Selectivity ratio of IC50 for human full length GST-tagged HDAC8 expressed in Escherichia coli DH5alpha (DE3) to IC50 for HDAC2 in human MDA-MB-231 cells
Histone deacetylase 1 [9] = target: T5, Histone deacetylase 1; assay: Inhibition of HDAC1 in human MDA-MB-231 cells assessed as inhibition of deacetylation activity at 100 nM using Fluor-de-Lys as substrate measured after 15 mins by fluorimetric assay; assay type: cell-based
Histone deacetylase 2 [10] = target: T2, Histone deacetylase 2; assay: Inhibition of HDAC2 in human MDA-MB-231 cells assessed as inhibition of deacetylation activity using Fluor-de-Lys as substrate measured after 15 mins by fluorimetric assay; assay type: cell-based

T2 sequence (Q92769 whole entry): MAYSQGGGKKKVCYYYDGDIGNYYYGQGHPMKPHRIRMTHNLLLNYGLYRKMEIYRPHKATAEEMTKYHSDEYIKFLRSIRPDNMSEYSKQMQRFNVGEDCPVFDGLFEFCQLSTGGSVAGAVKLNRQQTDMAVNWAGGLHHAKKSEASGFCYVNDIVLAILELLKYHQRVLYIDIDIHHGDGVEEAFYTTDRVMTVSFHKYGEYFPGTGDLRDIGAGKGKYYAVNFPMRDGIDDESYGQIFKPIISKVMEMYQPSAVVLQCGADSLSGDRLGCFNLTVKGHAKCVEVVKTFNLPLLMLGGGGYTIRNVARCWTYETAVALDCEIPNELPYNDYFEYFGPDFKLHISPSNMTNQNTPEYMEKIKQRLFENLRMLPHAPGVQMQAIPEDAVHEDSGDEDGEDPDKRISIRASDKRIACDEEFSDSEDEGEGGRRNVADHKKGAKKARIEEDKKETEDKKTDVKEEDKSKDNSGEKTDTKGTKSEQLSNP
T3 sequence (O15379 whole entry): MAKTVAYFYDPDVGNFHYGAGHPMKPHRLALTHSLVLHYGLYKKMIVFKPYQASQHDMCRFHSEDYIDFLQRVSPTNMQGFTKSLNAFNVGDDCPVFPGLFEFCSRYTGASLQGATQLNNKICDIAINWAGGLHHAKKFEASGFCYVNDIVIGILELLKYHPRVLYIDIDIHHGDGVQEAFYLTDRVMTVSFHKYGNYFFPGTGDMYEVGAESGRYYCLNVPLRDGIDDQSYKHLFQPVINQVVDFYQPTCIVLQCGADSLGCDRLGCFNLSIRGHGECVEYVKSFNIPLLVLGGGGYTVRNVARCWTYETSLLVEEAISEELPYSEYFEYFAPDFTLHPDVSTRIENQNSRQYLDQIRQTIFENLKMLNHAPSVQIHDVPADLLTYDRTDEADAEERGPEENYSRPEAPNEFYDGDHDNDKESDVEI
T5 sequence (Q13547 whole entry): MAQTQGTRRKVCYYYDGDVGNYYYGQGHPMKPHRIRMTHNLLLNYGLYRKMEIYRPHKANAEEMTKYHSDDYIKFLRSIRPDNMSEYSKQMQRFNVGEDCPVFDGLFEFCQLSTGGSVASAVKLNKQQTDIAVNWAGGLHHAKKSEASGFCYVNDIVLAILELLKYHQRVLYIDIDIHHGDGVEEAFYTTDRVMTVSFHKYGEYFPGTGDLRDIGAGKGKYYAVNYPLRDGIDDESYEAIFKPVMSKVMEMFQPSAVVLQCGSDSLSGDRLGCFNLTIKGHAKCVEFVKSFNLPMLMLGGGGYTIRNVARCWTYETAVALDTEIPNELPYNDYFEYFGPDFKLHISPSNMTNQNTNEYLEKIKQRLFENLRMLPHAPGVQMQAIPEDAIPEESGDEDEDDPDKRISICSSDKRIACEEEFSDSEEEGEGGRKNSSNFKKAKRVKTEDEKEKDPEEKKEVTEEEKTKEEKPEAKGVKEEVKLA

IC50 (Histone deacetylase 8) [nM] | Compound | IC50 [1] [nM] | also measured
127 | C[C@@H](N)C(=O)NCc1nnc(-c2ccc([N+](=O)[O-])cc2)o1 | 261 | –
155 | NCC(=O)NCc1nnc(-c2ccccc2)o1 | 283 | –
134 | NCC(=O)NCc1nnc(-c2ccc([N+](=O)[O-])cc2)o1 | 276 | –
142 | COc1ccc(-c2nnc(CNC(=O)CN)o2)cc1 | 276 | –
135 | NCC(=O)NCc1nnc(-c2ccc(F)cc2)o1 | 254 | –
116 | C[C@@H](N)C(=O)NCc1nnc(-c2ccc(F)cc2)o1 | 247 | –
98 to 100 | C[C@@H](N)C(=O)NCc1nnc(-c2ccccc2)o1 | 230 | inhibition (Histone deacetylase 2 [2]): 19%; IC50 (Histone deacetylase 3 [3]): > 10000 nM; Ratio IC50 (Homo sapiens [4]): 0.38; inhibition [5]: 53%; IC50 (Histone deacetylase 1 [6]): 260 nM; inhibition (Histone deacetylase 3 [7]): 0%; Ratio IC50 (Homo sapiens [8]): 0.74; inhibition (Histone deacetylase 1 [9]): 30%; IC50 (Histone deacetylase 2 [10]): 135 nM
153 | COc1ccc(-c2nnc(CNC(=O)[C@@H](C)N)o2)cc1 | 295 | –
139 | Cc1ccc(-c2nnc(CNC(=O)CN)o2)cc1 | 260 | –
121 | Cc1ccc(-c2nnc(CNC(=O)[C@@H](C)N)o2)cc1 | 254 | –
